We go through one compound from ChEMBL document CHEMBL5154709, “Tetrazole derivatives bearing benzodiazepine moiety-synthesis and action mode against virulence of Candida albicans” (Eur J Med Chem, 2022).

The test system of assay [1] is Candida albicans. Briefly: Antifungal activity against Candida albicans SC5314 assessed as inhibition of fungal growth at 0.0625 ug/ml incubated for 48 hrs by M27-A3 based microdilution method relative to control. The assay is classed as functional. (In general: Dilution methods test growth across graded concentrations, often in twofold steps.)
Assay [2] has as its system Candida albicans. Briefly: Antifungal activity against Candida albicans SC5314 assessed as inhibition of fungal growth at 8 ug/ml incubated for 18 hrs by M27-A3 based microdilution method relative to control. It is filed as functional.
Assay [3] relates to Candida albicans. Briefly: Induction of reactive oxygen species generation in Candida albicans CNB1/cnb1delta mutant assessed as increase in ROS level at 16 ug/ml incubated for 18 hrs by DCFH-DA staining based flow cytometric analysis (reference value: 3.8+/- 4.2%). It is filed as functional. As to conditions: dose 16 µg/ml.
For assay [4], the system named is Candida albicans. Briefly: Antifungal activity against Candida albicans SC5314 assessed as inhibition of fungal growth at 0.0625 ug/ml incubated for 18 hrs by M27-A3 based microdilution method relative to control. The assay is classed as functional.
The test system of assay [5] is Candida albicans. Briefly: Antifungal activity against Candida albicans assessed as inhibition of fungal growth measured after 48 hrs in presence of exogenous ergosterol by M27-A3 based broth microdilution. It is filed as functional.
The subject of assay [6] is Candida albicans. Briefly: Effect on HSP90 expression in Candida albicans cnb1delta/CNB1 mutant assessed as fold increase in relative expression of HSP90 gene level at 2 ug/ml incubated for 18 hrs in presence of calcium chloride by RT-PCR analysis. The assay is classed as functional. Particulars: dose 2.0 µg/ml.
Assay [7] relates to Candida albicans. In words: Induction of macrophage-mediated Candida albicans SC5314 phagocytosis assessed as change in chitin at 16 ug/ml incubated for 18 hrs in presence of mouse RAW264.7 macrophages by PI/Acridine orange double staining based confocal laser scanning microscopic analysis. The assay is classed as functional. As to conditions: dose 16.0 µg/ml.
Assay [8] concerns Candida albicans. In words: Induction of apoptosis in Candida albicans SC5314 protoplast cells assessed as necrotic cells at 16 ug/ml incubated for 18 hrs by PI/Annexin V staining based flow cytometry assay. It is filed as functional. As to conditions: dose 16 µg/ml. (In flow cytometry, cells or beads pass a laser one at a time.)
Assay [9] deals with Candida albicans. Briefly: Antifungal activity against Candida albicans SC5314 assessed as inhibition of fungal growth at 4 ug/ml incubated for 48 hrs by M27-A3 based microdilution method relative to control. The assay is classed as functional.
Assay [10] concerns Candida albicans. Briefly: Antifungal against Candida albicans cnb1delta/cnb1delta mutant biofilm assessed as increase cell membrane permeability at 16 ug/ml incubated for 18 hrs by Rho123 and Hoechst 33342 double staining based confocal laser scanning microscopic analysis. Particulars: dose 16.0 µg/ml. The assay is classed as functional, organism-based.
For assay [11], the system named is Candida albicans. Briefly: Fungicidal activity against Candida albicans SC5314 assessed as inhibition of fungal growth incubated for 48 hrs by M27-A3 based microdilution method. It is filed as functional.
The test system of assay [12] is Candida albicans. Briefly: Induction of macrophage-mediated Candida albicans SC5314 phagocytosis assessed as change in hyphae properties at 16 ug/ml incubated for 18 hrs in presence of mouse RAW264.7 macrophages by PI/Acridine orange double staining based confocal laser scanning microscopic analysis. It is filed as functional. Particulars: dose 16.0 µg/ml.
The subject of assay [13] is Candida albicans. Briefly: Induction of cell cycle arrest in Candida albicans SC5314 assessed as accumulation of cells in G0/G1 phase at 16 ug/ml incubated fro 18 hrs by PI staining based flow cytometry method. As to conditions: dose 16.0 µg/ml. The assay is classed as functional, organism-based.
In assay [14] the test system is Candida albicans. In words: Effect on HSP90 expression in Candida albicans cnb1delta/cnb1delta mutant assessed as fold increase in relative expression of HSP90 gene level at 2 ug/ml incubated for 18 hrs in presence of calcium chloride by RT-PCR analysis. It is filed as functional. Particulars: dose 2.0 µg/ml.
For assay [15], the system named is Candida albicans. Briefly: Antifungal activity against Candida albicans SC5314 assessed as inhibition of fungal growth at 0.125 ug/ml incubated for 48 hrs by M27-A3 based microdilution method relative to control. It is filed as functional.
Assay [16] has as its system Candida albicans. In words: Induction of reactive oxygen species generation in Candida albicans SC5314 assessed as increase in ROS level at 16 ug/ml incubated for 18 hrs by DCFH-DA staining based flow cytometric analysis (reference value: 0.77+/- 0.4%). It is filed as functional. As to conditions: dose 16 µg/ml.
For assay [17], the system named is Candida albicans. In words: Induction of reactive oxygen species generation in Candida albicans cnb1delta/cnb1delta mutant assessed as increase in ROS level at 16 ug/ml incubated for 18 hrs by DCFH-DA staining based flow cytometric analysis (reference value: 4.7+/- 5.9%). The assay is classed as functional. As to conditions: dose 16 µg/ml.
Assay [18] relates to Candida albicans. Briefly: Antifungal activity against Candida albicans SC5314 assessed as inhibition of fungal growth at 0.03125 ug/ml incubated for 48 hrs by M27-A3 based microdilution method relative to control. The assay is classed as functional.
Assay [19] deals with Candida albicans. In words: Antifungal activity against Candida albicans SC5314 assessed as inhibition of fungal growth at 0.5 ug/ml incubated for 48 hrs by M27-A3 based microdilution method relative to control. The assay is classed as functional.
Assay [20] deals with Candida albicans. Briefly: In vivo antifungal activity against Candida albicans SC5314 infected in Galleria mellonella larvae assessed as survival of larvae by measuring health score index at 16 ug/ml administered 1 hr post infection measured within 5 days by Hematoxylin and eosin staining. It is filed as functional, organism-based. Particulars: dose 16.0 µg/ml, time 5.0 day.

The structures appear in SMILES notation. Active and inactive are the calls of the source. No cut-off for these calls is given here.

One may read the inhibition as how much of the control response was suppressed. As usually defined, the MIC is the lowest concentration found to suppress growth. As for `O=C1CN=C(c2ccccc2Br)c2cc(F)ccc2N1CCCn1nnc(-c2ccccc2Cl)n1`, the inhibition at 0.0625 µg/mL in the assay with Candida albicans [1] worked out at 99.4%; in the assay with Candida albicans [4] it was 99.2%. In addition, the inhibition at 8 µg/mL in the assay on Candida albicans [2] stood at 99.1%. Also, the Activity came to 4.9% in the assay on Candida albicans [3], 78.5% in the assay with Candida albicans [8], 24.4% with Candida albicans [16] and 2.95% in the assay on Candida albicans [17]. Moreover, the MIC with Candida albicans [5] turned out to be 2.56 µg/mL. Also, the fold change (FC) with Candida albicans [6] and in the assay with Candida albicans [14] was 4 each time. Moreover, the result in the assay on Candida albicans [7], with Candida albicans [10], in the assay with Candida albicans [12], in the assay on Candida albicans [13] and in the assay with Candida albicans [20] was Active. In addition, the inhibition at 4 µg/mL in the assay with Candida albicans [9] worked out at 99.3%. Besides, the “inhibition (INH)” value in the assay with Candida albicans [11] was 99.6%. The inhibition at 0.125 µg/mL in the assay on Candida albicans [15] turned out to be 99.3%. In the assay on Candida albicans [18], the inhibition at 0.03125 µg/mL amounted to 100%. Besides, the inhibition at 0.5 µg/mL with Candida albicans [19] came out at 99.3%.
